#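 Step 1: Grow cells in 96-well plates. Step 2: Expose to compound for 48 hours at 5 concentrations. Step 3: Interpolate endpoints linearly; if unreached, use highest concentration. At the GI50, growth is halved.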 Calls of active or inactive are those of the source. Cut-off read from the data, not from the text of the source: active = GI50 up to about 1.1 µM and inactive = higher.
# Experiments:
# Experiment in all cases: inhibition of tumour cell growth, NCI panel, 48 h
# A498 = tested on: A498
# ACHN = tested on: ACHN
# CAKI-1 = tested on: CAKI-1
# HCC 2998 = tested on: HCC 2998
# HOP-62 = tested on: HOP-62
# KM12 = tested on: KM12
# MCF7 = tested on: MCF7
# MDA-MB-435 = tested on: MDA-MB-435
# MDA-N = tested on: MDA-N
# NCI-H226 = tested on: NCI-H226
# NCI-H23 = tested on: NCI-H23
# NCI-H522 = tested on: NCI-H522
# OVCAR-3 = tested on: OVCAR-3
# OVCAR-8 = tested on: OVCAR-8
# PC-3 = tested on: PC-3
# RPMI-8226 = tested on: RPMI-8226
# SF-539 = tested on: SF-539
# SNB-75 = tested on: SNB-75
# SR = tested on: SR
# TK-10 = tested on: TK-10
Compound,GI50 (A498),GI50 (ACHN),GI50 (CAKI-1),GI50 (HCC 2998),GI50 (HOP-62),GI50 (KM12),GI50 (MCF7),GI50 (MDA-MB-435),GI50 (MDA-N),GI50 (NCI-H226),GI50 (NCI-H23),GI50 (NCI-H522),GI50 (OVCAR-3),GI50 (OVCAR-8),GI50 (PC-3),GI50 (RPMI-8226),GI50 (SF-539),GI50 (SNB-75),GI50 (SR),GI50 (TK-10)
Cc1ccc(F)c2[nH]c(-c3ccccc3)cc(=O)c12,39.4 µM (inactive),8.77 µM (inactive),> 100 µM (inactive),11.9 µM (inactive),5.9 µM (inactive),3.03 µM (inactive),1.18 µM (inactive),1.18 µM (inactive),0.897 µM (active),40.1 µM (inactive),9.46 µM (inactive),5.69 µM (inactive),6.28 µM (inactive),6.11 µM (inactive),8.81 µM (inactive),3.96 µM (inactive),4.34 µM (inactive),6.18 µM (inactive),2.99 µM (inactive),14.6 µM (inactive)
COc1ccc2c(N=[N+]=[N-])c(-c3ccccc3)c(=O)oc2c1,45.9 µM (inactive),41.1 µM (inactive),30.1 µM (inactive),92.3 µM (inactive),> 100 µM (inactive),34.5 µM (inactive),36.2 µM (inactive),45.8 µM (inactive),48.8 µM (inactive),–,24.5 µM (inactive),26.1 µM (inactive),–,77.1 µM (inactive),52.7 µM (inactive),20.8 µM (inactive),> 100 µM (inactive),> 100 µM (inactive),22.2 µM (inactive),87.5 µM (inactive)
Cc1ccc(S(=O)(=O)N2CC3OC(C)(C)OC3C2CO)cc1 (configuration not stated),> 100 µM (inactive),> 100 µM (inactive),> 100 µM (inactive),> 100 µM (inactive),> 100 µM (inactive),> 100 µM (inactive),> 100 µM (inactive),> 100 µM (inactive),> 100 µM (inactive),> 100 µM (inactive),–,> 100 µM (inactive),> 100 µM (inactive),> 100 µM (inactive),> 100 µM (inactive),> 100 µM (inactive),> 100 µM (inactive),> 100 µM (inactive),> 100 µM (inactive),> 100 µM (inactive)
N#Cc1c(NC(=S)NCc2ccccc2)sc2c1CCN(N1CCc3c(sc(NC(=S)NCc4ccccc4)c3C#N)C1)C2,> 100 µM (inactive),> 100 µM (inactive),> 100 µM (inactive),> 100 µM (inactive),> 100 µM (inactive),> 100 µM (inactive),> 100 µM (inactive),> 100 µM (inactive),> 100 µM (inactive),> 100 µM (inactive),> 100 µM (inactive),> 100 µM (inactive),> 100 µM (inactive),> 100 µM (inactive),> 100 µM (inactive),–,> 100 µM (inactive),> 100 µM (inactive),> 100 µM (inactive),> 100 µM (inactive)
Nc1nc2ccc(OCC(O)CN3CCCCC3)cc2[n+]([O-])n1 (configuration not stated),> 100 µM (inactive),> 100 µM (inactive),> 100 µM (inactive),> 100 µM (inactive),–,> 100 µM (inactive),> 100 µM (inactive),> 100 µM (inactive),> 100 µM (inactive),> 100 µM (inactive),> 100 µM (inactive),> 100 µM (inactive),> 100 µM (inactive),> 100 µM (inactive),> 100 µM (inactive),> 100 µM (inactive),> 100 µM (inactive),70.3 µM (inactive),> 100 µM (inactive),> 100 µM (inactive)
NC(=O)N/N=C1\C[C@H]2CCCC[C@H]2C1,> 100 µM (inactive),> 100 µM (inactive),> 100 µM (inactive),> 100 µM (inactive),> 100 µM (inactive),> 100 µM (inactive),> 100 µM (inactive),> 100 µM (inactive),> 100 µM (inactive),> 100 µM (inactive),–,> 100 µM (inactive),> 100 µM (inactive),83.4 µM (inactive),> 100 µM (inactive),> 100 µM (inactive),> 100 µM (inactive),> 100 µM (inactive),> 100 µM (inactive),> 100 µM (inactive)
O=C1O[C@H]2[C@H](OC(=O)c3cc(O)c(O)c(O)c3)[C@@H](OC(=O)c3cc(O)c(O)c4c3[C@@H]3C1=CC(=O)C(O)(O)C3(O)O4)[C@H](OC(=O)c1cc(O)c(O)c(O)c1)O[C@@H]2COC(=O)c1cc(O)c(O)c(O)c1 (some centres not stated) [TERCHEBIN],> 100 µM (inactive),27.9 µM (inactive),36.2 µM (inactive),68.2 µM (inactive),99.3 µM (inactive),14.6 µM (inactive),74.5 µM (inactive),38.4 µM (inactive),53.5 µM (inactive),35.7 µM (inactive),42.8 µM (inactive),32.1 µM (inactive),39.5 µM (inactive),39.3 µM (inactive),34.9 µM (inactive),51.5 µM (inactive),–,49.9 µM (inactive),44.2 µM (inactive),–

# Source: ChEMBL document CHEMBL1201862, “PubChem BioAssay data set” (2004)
